# Test results: US8658660B2, “5-fluoro-4-imino-3,4-dihydropyrimidin-2-(1H)-ones derivatives” (Dow AgroSciences, LLC., priority 2011, dated 2014)
# Columns and labels:
# [1] = tested on: Mycosphaerella graminicola; anamorph: Septoria tritici (SEPTTR); assay: Evaluation of fungicidal activity: leaf blotch of wheat (SEPTTR); assay type: in vivo, Septoria tritici on wheat plants (variety Yuma); conditions: wheat plants, percent control vs untreated inoculated plants
# Method: Evaluation of Fungicidal Activity: Leaf Blotch of Wheat (Mycosphaerella graminicola; anamorph: Septoria tritici; Bayer code […]) Wheat plants (variety Yuma) were grown from seed in a greenhouse in 50% mineral soil/50% soil-less Metro mix until the first leaf was fully emerged, with 7-10 seedlings per pot. These plants were inoculated with an aqueous spore suspension of Septoria tritici either prior to or after fungicide treatments. After inoculation the plants were kept in 100% relative humidity (one day in a dark dew chamber followed by two to three days in a lighted dew chamber) to permit spores to germinate and infect the leaf. The plants were then transferred to a greenhouse for disease to develop. The following table presents the activity of typical compounds of the present disclosure when evaluated in these experiments. The effectiveness of the test compounds in controlling disease was determined by assessing the severity of disease on treated plants, then converting the severity to percent control based on the level of disease on untreated, inoculated plants.
# [2] = tested on: Venturia inaequalis (VENTIN); assay: Evaluation of fungicidal activity: apple scab (VENTIN); assay type: in vivo; conditions: apple seedlings, percent control vs untreated inoculated plants
# Method: Evaluation of Fungicidal Activity: Apple Scab (Venturia inaequalis; Bayer code […]) Apple seedlings (McIntosh or Golden Delicious) were grown in Metro mix and inoculated with a spore suspension containing 5×10^5 spore/ml. Plants were placed in a dew room for 24 hours with 100% relative humidity and then transferred to a greenhouse with a temperature of 18° C. for disease to develop. The following table presents the activity of typical compounds of the present disclosure when evaluated in these experiments. The effectiveness of the test compounds in controlling disease was determined by assessing the severity of disease on treated plants, then converting the severity to percent control based on the level of disease on untreated, inoculated plants.
SMILES,"SEPTTR 100 PPM 1DP (One-Day Protectant activity, % disease control rating) [1]","SEPTTR 100 PPM 3DC (Three-Day Curative activity, % disease control rating) [1]","VENTIN 100 PPM 1DP (One-Day Protectant activity, % disease control rating) [2]"
"Cn1c(=O)[nH]cc(F)c1=N [Cmpd 1, 5-fluoro-4-imino-3-methyl-3,4-dihydropyrimidin-2(1H)-one]",A (76-100),A (76-100),B (51-75)
"N=c1c(F)c[nH]c(=O)n1Cc1cccs1 [Cmpd 2, 5-fluoro-4-imino-3-(thiophen-2-ylmethyl)-3,4-dihydropyrimidin-2(1H)-one]",B (51-75),A (76-100),
"[2H]C([2H])([2H])n1c(=O)[nH]cc(F)c1=N [Cmpd 3, 5-fluoro-4-imino-3-(trideuteriomethyl)-1H-pyrimidin-2-one]",D (0-25),D (0-25),
